Assay results as given in ChEMBL document CHEMBL1154979 (J Med Chem, 2010).
Active and inactive are the calls of the source. No cut-off for these calls is given here.

Experiments:
Assay type in all cases: cell-based
Settings in all cases: tested as the 125I-labelled form
[1] = tested on: T1, Type-1 angiotensin II receptor (Homo sapiens), P30556 [N111G]; assay: Binding affinity to human AT1 receptor N111G constitutively active mutant expressed in CHO cells by photoaffinity labeling relative to untreated control
T1 sequence (whole entry): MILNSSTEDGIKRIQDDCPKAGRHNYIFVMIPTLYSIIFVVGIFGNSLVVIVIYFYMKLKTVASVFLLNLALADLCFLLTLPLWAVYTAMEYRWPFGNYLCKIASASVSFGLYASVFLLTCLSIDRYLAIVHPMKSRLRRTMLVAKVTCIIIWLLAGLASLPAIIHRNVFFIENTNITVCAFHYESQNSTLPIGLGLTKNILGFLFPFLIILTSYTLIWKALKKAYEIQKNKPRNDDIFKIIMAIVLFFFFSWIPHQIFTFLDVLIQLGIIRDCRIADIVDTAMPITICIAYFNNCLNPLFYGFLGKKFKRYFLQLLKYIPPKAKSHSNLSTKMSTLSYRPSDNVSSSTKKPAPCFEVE

[2] = tested on: T1, Type-1 angiotensin II receptor (Homo sapiens), P30556 [N111G]; assay: Binding affinity to Leu143-Met243 region of human AT1 receptor N111G constitutively active mutant expressed in CHO cells after PNGase-F cleavage by photoaffinity labeling
[3] = tested on: T1, Type-1 angiotensin II receptor (Homo sapiens), P30556 [N111G]; assay: Binding affinity to Glu91-Met134 and Ala244-Met284 regions of human AT1 receptor N111G constitutively active mutant expressed in CHO cells after CNBr cleavage by photoaffinity labeling
[4] = tested on: T1, Type-1 angiotensin II receptor (Homo sapiens), P30556 [N111G]; assay: Binding affinity to Thr61-Lys102 and Ala21-Lys58 regions of human AT1 receptor N111G constitutively active mutant expressed in CHO cells after Endo-Lys-C cleavage by photoaffinity labeling
[5] = tested on: T1, Type-1 angiotensin II receptor (Homo sapiens), P30556 [N111G]; assay: Binding affinity to Ile2-Met30 region of human AT1 receptor N111G constitutively active mutant expressed in CHO cells after PNGase-F cleavage by photoaffinity labeling

Row | Compound | Activity [1] | Activity [2] | Activity [3] | Activity [4] | Activity [5]
1 | CC[C@H](C)[C@H](NC(=O)[C@H](Cc1ccc(I)cc1)NC(=O)[C@H](Cc1ccc(C2(C(F)(F)F)N=N2)cc1)NC(=O)[C@H](CCCNC(=N)N)NC(=O)CNC)C(=O)N[C@@H](Cc1cnc[nH]1)C(=O)N1CCC[C@H]1C(=O)N[C@@H](Cc1ccccc1)C(=O)O | Active | Active | – | – | –
2 | CNCC(=O)N[C@@H](CCCNC(=N)N)C(=O)N[C@H](C(=O)N[C@@H](Cc1ccc(I)cc1)C(=O)N[C@@H](Cc1ccc(C2(C(F)(F)F)N=N2)cc1)C(=O)N[C@@H](Cc1cnc[nH]1)C(=O)N1CCC[C@H]1C(=O)N[C@@H](Cc1ccccc1)C(=O)O)C(C)C | Active | – | Active | Active | Active
3 | CC[C@H](C)[C@H](NC(=O)[C@H](Cc1ccc(I)cc1)NC(=O)[C@@H](NC(=O)[C@H](Cc1ccc(C(=O)c2ccccc2)cc1)NC(=O)CNC)C(C)C)C(=O)N[C@@H](Cc1cnc[nH]1)C(=O)N1CCC[C@H]1C(=O)N[C@@H](Cc1ccccc1)C(=O)O | Active | Active | Active | – | –

Next, values leading:

Row | Activity [1] | Activity [2] | Activity [3] | Activity [4] | Activity [5] | Compound
4 | Active | – | Active | Active | Active | CNCC(=O)N[C@@H](CCCNC(=N)N)C(=O)N[C@H](C(=O)N[C@@H](Cc1ccc(I)cc1)C(=O)N[C@@H](Cc1ccc(C(=O)c2ccccc2)cc1)C(=O)N[C@@H](Cc1cnc[nH]1)C(=O)N1CCC[C@H]1C(=O)N[C@@H](Cc1ccccc1)C(=O)O)C(C)C
5 | Active | Active | – | – | – | CC[C@H](C)[C@H](NC(=O)[C@H](Cc1ccc(I)cc1)NC(=O)[C@H](Cc1ccc(C(=O)c2ccccc2)cc1)NC(=O)[C@H](CCCNC(=N)N)NC(=O)CNC)C(=O)N[C@@H](Cc1cnc[nH]1)C(=O)N1CCC[C@H]1C(=O)N[C@@H](Cc1ccccc1)C(=O)O
6 | Active | Active | Active | – | Active | CC[C@H](C)[C@H](NC(=O)[C@H](Cc1ccc(I)cc1)NC(=O)[C@@H](NC(=O)[C@H](CCCNC(=N)N)NC(=O)[C@@H](N)Cc1ccc(C(=O)c2ccccc2)cc1)C(C)C)C(=O)N[C@@H](Cc1cnc[nH]1)C(=O)N1CCC[C@H]1C(=O)N[C@@H](Cc1ccccc1)C(=O)O
